Test results reported in US7541367B2, “3-benzoimidazolyl-pyrazolopyridines useful in treating kinase disorders” (Janssen Pharmaceutica, N.V., priority 2005, dated 2009).

Experiments:
[1] = biological target: T1, HER2 (Homo sapiens, UniProt P04626); experiment: HER2 kinase screening assay (33P-ATP FlashPlate); format: biochemical; settings: GST-HIS6 HER-2 aa 679 to 1255; 10 μM ATP; 1 hr at 30° C;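 note: Biotin-poly(GT) 4:1 peptide captured on streptavidin FlashPlate, 33P transfer from γ-ATP read by scintillation counting, lower incorporation means inhibition, 1% DMSO final, 100 µL reaction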
T1 construct: GST (Glutathione-S-Transferase) (N); HIS6 (N); thrombin cleavage site (N); purchased Proqinase, Freiburg, Germany
T1 sequence (P04626 679-1255): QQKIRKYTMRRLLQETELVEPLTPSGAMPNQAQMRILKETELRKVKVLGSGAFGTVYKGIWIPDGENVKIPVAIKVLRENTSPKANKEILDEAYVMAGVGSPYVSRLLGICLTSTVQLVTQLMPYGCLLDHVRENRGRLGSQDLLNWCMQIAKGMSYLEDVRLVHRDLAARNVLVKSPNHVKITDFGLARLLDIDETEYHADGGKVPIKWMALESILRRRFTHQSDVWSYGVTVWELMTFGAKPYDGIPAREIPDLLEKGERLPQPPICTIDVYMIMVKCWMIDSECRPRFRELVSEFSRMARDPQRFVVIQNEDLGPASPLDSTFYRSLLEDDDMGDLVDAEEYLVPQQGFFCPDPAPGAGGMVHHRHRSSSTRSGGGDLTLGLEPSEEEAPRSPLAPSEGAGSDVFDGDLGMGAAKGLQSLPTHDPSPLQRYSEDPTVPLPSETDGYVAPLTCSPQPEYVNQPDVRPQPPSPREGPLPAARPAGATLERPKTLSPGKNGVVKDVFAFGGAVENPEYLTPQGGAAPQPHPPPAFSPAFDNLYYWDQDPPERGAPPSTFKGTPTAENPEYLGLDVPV

[2] = biological target: T2, c-Src kinase (Homo sapiens, UniProt P12931); experiment: c-Src Kinase Assay; format: biochemical; settings: 5 μM ATP
T2 construct: purchased Upstate Biotechnology, Lake Placid, N.Y
T2 sequence (P12931 whole entry): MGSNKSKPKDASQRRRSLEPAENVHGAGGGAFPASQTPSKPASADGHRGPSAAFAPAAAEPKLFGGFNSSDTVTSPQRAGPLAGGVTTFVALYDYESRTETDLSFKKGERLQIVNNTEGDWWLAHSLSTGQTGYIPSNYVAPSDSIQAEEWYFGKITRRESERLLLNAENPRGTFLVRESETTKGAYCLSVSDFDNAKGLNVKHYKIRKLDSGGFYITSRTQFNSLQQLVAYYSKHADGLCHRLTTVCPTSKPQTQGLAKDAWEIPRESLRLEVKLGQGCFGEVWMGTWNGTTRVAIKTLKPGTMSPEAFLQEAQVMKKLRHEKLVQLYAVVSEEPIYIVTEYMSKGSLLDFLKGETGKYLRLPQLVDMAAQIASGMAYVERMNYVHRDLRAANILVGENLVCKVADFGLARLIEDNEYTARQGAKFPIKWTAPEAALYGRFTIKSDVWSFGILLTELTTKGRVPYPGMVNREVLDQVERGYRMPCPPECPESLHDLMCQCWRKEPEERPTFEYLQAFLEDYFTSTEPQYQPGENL
Procedure, shortened: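 Human c-Src phosphorylated Cdc2 peptide (100 μM) […]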

[3] = system: HCT-116 colon carcinoma; experiment: Cell Proliferation Inhibition Assay (14C-thymidine incorporation), HCT-116; format: cell-based; settings: Homo sapiens, HCT-116, HCT-116 cells;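 note: proliferation measured as methyl 14C-thymidine uptake into new DNA, counted in 96-well scintillating microplates, compared with DMSO-only control wells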
[4] = biological target: T3, Aurora-A (Mus musculus, UniProt P97477); experiment: Aurora-A kinase screening assay (33P-ATP FlashPlate); format: biochemical; settings: 10 μM ATP, 1 hr at 30° C;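 note: His-tagged mouse Aurora-A phosphorylating a biotinylated peptide captured on streptavidin plates, read as 33P uptake by scintillation counting, 1% DMSO, inhibition scaled between per-plate maximum and minimum signals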
T3 construct: polyhistidine (N)
T3 sequence (P97477 1-395): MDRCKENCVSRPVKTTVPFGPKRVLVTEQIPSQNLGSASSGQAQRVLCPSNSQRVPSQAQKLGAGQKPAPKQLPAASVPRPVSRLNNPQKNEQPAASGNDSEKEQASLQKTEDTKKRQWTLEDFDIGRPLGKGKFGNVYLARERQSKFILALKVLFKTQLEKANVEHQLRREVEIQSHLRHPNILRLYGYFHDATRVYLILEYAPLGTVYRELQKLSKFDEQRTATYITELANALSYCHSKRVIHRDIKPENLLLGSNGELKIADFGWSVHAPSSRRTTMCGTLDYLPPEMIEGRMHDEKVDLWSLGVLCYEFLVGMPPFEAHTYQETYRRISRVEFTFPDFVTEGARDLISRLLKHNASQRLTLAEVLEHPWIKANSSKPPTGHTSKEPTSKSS

[5] = system: HeLa cervical adenocarcinoma; experiment: Cell Proliferation Inhibition Assay (14C-thymidine incorporation), HeLa; format: cell-based; settings: Homo sapiens, HeLa, HeLa cells;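 note: test compound in DMSO added to cells seeded in scintillating 96-well plates, DMSO-only wells as control, uptake of methyl 14C-thymidine into new DNA counted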
[6] = biological target: T4, VEGF-R2 (Rattus norvegicus, UniProt O08775); experiment: VEGF-R2 kinase screening assay (33P-ATP FlashPlate); format: biochemical; settings: rat VEGF-R2 kinase domain; 10 μM ATP; 1 hr at 30° C;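 note: Read-out is ³³P incorporation from ³³P-γ-ATP into biotinylated peptide substrate captured on streptavidin FlashPlate, counted by scintillation, 1% DMSO final, inhibition scaled between per-plate maximum and minimum signals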
T4 construct: polyhistidine (N)
T4 sequence (O08775 786-1343): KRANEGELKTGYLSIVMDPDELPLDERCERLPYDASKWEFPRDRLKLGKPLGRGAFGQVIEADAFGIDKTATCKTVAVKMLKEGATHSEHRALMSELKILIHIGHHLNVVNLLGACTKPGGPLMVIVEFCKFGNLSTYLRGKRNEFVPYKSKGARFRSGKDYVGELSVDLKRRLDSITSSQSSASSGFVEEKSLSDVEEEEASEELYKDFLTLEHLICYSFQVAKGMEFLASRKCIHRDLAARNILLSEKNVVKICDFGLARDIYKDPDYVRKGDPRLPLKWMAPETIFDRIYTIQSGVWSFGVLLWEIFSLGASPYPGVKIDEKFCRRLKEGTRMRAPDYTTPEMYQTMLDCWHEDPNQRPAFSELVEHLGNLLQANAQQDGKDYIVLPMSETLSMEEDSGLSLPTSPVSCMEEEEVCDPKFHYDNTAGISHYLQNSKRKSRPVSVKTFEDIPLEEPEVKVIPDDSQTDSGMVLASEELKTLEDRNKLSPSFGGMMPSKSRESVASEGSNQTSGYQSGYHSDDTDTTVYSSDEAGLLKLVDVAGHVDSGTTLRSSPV

[7] = biological target: T5, Lyn kinase (Homo sapiens, UniProt P07948); experiment: Lyn Kinase Assay; format: biochemical; settings: 5 μM ATP
T5 construct: purchased Upstate Biotechnology, Lake Placid, N.Y
T5 sequence (P07948 whole entry): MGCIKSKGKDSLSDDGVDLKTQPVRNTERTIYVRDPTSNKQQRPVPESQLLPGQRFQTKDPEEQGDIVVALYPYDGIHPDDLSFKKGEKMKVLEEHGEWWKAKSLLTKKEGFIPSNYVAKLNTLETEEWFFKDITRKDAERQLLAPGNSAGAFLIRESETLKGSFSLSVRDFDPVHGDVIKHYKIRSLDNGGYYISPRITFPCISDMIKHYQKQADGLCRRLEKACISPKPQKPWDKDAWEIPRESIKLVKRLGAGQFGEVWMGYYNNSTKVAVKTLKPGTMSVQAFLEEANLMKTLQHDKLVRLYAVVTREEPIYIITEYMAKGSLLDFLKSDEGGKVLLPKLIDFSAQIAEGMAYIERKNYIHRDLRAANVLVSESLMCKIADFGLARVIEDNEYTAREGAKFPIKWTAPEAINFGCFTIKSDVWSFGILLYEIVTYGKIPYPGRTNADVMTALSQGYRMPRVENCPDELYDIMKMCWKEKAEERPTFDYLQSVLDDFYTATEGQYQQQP
Procedure, shortened: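 Recombinant human Lyn kinase in pH 7.5 Tris buffer with EGTA, vanadate, β-mercaptoethanol and BSA reacted with compound for 40 min at 30° C. The radiolabelled product was captured on P30 filtermats after phosphoric acid stop and counted by scintillation. IC50 came from percent inhibition versus log concentration, using plate maximum/minimum signals.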

[8] = biological target: T6, RET (Homo sapiens, UniProt P07949); experiment: RET kinase screening assay (33P-ATP FlashPlate); format: biochemical; settings: human RET kinase domain; 10 μM ATP; 1 hr at 30° C;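 note: biotinylated peptide substrate captured on streptavidin FlashPlate, 33P phosphate transfer read by scintillation counting, 1% DMSO, lower incorporation means inhibition, percent relative to per-plate maximum and minimum signals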
T6 construct: polyhistidine (N)
T6 sequence (P07949 658-1114 limits assumed): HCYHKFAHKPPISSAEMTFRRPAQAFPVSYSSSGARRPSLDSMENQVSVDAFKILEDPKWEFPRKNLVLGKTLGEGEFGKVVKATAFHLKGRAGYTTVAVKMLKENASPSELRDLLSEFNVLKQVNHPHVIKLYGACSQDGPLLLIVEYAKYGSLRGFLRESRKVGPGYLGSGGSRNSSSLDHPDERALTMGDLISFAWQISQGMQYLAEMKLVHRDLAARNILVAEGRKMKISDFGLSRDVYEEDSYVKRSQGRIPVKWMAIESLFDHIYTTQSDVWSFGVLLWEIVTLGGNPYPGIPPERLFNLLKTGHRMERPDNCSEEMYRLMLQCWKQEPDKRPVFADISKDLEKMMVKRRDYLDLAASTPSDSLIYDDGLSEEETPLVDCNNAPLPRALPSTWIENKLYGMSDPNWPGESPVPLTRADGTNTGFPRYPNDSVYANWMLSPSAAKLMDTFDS

[9] = system: A375 malignant melanoma; experiment: Cell Proliferation Inhibition Assay (14C-thymidine incorporation), A375; format: cell-based; settings: Homo sapiens, A-375, A375 cells;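 note: proliferation measured by radiolabelled thymidine uptake into new DNA, counted in scintillating 96-well plates, compound-treated wells compared with DMSO-only control wells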
[10] = biological target: T7, CDK1 (Homo sapiens, UniProt P06493); experiment: CDK-1 kinase screening assay (33P-ATP FlashPlate); format: biochemical; settings: human CDK1 with cyclin B; 10 μM ATP; 1 hr at 30° C
T7 construct: purchased New England Biolabs, Beverly, Mass; 6020; host or cells: insect cells
T7 sequence (P06493 whole entry): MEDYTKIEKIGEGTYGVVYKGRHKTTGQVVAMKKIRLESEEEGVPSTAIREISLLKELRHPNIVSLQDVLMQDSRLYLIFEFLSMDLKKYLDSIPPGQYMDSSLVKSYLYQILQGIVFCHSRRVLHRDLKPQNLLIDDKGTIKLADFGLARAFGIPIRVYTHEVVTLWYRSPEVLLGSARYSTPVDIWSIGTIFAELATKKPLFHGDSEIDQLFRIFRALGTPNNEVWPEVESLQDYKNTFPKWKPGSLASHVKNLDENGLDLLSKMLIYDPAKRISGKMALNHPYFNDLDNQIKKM
T7 sequence (P14635 whole entry partner): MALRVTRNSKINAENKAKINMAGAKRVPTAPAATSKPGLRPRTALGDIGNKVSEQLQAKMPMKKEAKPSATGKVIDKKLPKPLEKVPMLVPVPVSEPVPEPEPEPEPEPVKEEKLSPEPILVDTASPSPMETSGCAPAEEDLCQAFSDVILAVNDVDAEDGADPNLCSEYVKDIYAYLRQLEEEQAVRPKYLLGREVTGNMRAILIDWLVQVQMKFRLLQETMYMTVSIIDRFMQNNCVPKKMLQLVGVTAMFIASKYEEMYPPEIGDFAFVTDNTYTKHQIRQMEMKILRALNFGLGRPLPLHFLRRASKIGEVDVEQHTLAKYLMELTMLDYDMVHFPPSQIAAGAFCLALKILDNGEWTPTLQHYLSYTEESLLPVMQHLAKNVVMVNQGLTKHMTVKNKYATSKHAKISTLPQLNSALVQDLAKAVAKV

[11] = system: Human melanoma A375 cells; experiment: In Vivo Models - Inhibition of Tumor Growth (A375 xenograft); settings: female athymic mice, 25 mg/kg i.p. daily
Protocol: The ability of test compounds to inhibit unregulated growth of human tumor cells in vivo was evaluated by implanting human tumor cells into the hindflank of athymic mice, administering a test compound and then quantifying any change in tumor size.
Certain compounds at particular doses produced adverse effects in this model. One skilled in the art would be able to establish the effective amount of compound required to achieve an effective therapeutic window.
Human melanoma A375 cells were implanted subcutaneously into the hindflank of female athymic mice (Charles River) and allowed to grow for 6-10 days. After a measurable tumor was established (as determined by baseline caliper measurement), the animal was administered an intraperitoneal (i.p.) dose of the test compound daily at 25 mg/kg for the length of the study. Tumor size was measured at certain intervals as shown in Table 5 and the degree of inhibition for a test compound was determined by comparing the reduction in tumor volume for drug-treated animals to that of untreated and vehicle-treated animals. The vehicle used was 20% hydroxypropyl β-cyclodextran.

Compound	IC50 [1] [nM]	IC50 [2] [nM]	IC50 [3] [nM]	IC50 [4] [nM]	IC50 [5] [nM]	IC50 [6] [nM]	IC50 [7] [nM]	IC50 [8] [nM]	IC50 [9] [nM]	IC50 [10] [nM]	Tumor volume ([11]; Day 1) [mm^3]	Tumor volume ([11]; Day 4) [mm^3]	Tumor volume ([11]; Day 8) [mm^3]	Tumor volume ([11]; Day 11) [mm^3]	Tumor volume ([11]; Day 14) [mm^3]
COCc1cccc2[nH]c(-c3n[nH]c4ncc(-c5cncc(CNC6CCN(C)CC6)c5)cc34)nc12 [Cpd 80, {5-[3-(4-methoxymethyl-1H-benzoimidazol-2-yl)-1H-pyrazolo[3,4-b]pyridin-5-yl]-pyridin-3-ylmethyl}-(1-methyl-piperidin-4-yl)-amine]	> 100000	211	2310	> 10000	> 10000	2080	192	> 100000	397	875					
CN1CCN(c2ccc3[nH]c(-c4n[nH]c5ncc(-c6cncc(CN7CCOCC7)c6)cc45)nc3c2)CC1 [Cpd 84, 3-[5-(4-methyl-piperazin-1-yl)-1H-benzoimidazol-2-yl]-5-(5-morpholin-4-ylmethyl-pyridin-3-yl)-1H-pyrazolo[3,4-b]pyridine]	1850	5.18	739	87.3	1880	~100	9.65	> 1000	2530	32.2					
CCNCc1cncc(-c2cnc3[nH]nc(-c4nc5ccc(F)cc5[nH]4)c3c2)c1 [Cpd 106, ethyl-{5-[3-(6-fluoro-1H-benzoimidazol-2-yl)-1H-pyrazolo[3,4-b]pyridin-5-yl]-pyridin-3-ylmethyl}-amine]	5120		93.7	803	58.6	154			51.2	0.7	95.4	94.7	318.6	558.3	896.8
CCNCc1cncc(-c2cnc3[nH]nc(-c4nc5cc(F)c(F)cc5[nH]4)c3c2)c1 [Cpd 107, {5-[3-(5,6-difluoro-1H-benzoimidazol-2-yl)-1H-pyrazolo[3,4-b]pyridin-5-yl]-pyridin-3-ylmethyl}-ethyl-amine]	3600		94.7	> 1000	138	~100			46.1	1.1	95.4				

Second part, led by results:

IC50 [1] [nM]	IC50 [2] [nM]	IC50 [3] [nM]	IC50 [4] [nM]	IC50 [5] [nM]	IC50 [6] [nM]	IC50 [7] [nM]	IC50 [8] [nM]	IC50 [9] [nM]	IC50 [10] [nM]	Compound	Tumor volume ([11]; Day 1) [mm^3]	Tumor volume ([11]; Day 4) [mm^3]	Tumor volume ([11]; Day 8) [mm^3]	Tumor volume ([11]; Day 11) [mm^3]	Tumor volume ([11]; Day 14) [mm^3]
> 100000	278	283	> 10000	2260	~1000	9010	> 100000	150	375	COCc1cccc2[nH]c(-c3n[nH]c4ncc(-c5ccc(F)nc5)cc34)nc12 [Cpd 71, 5-(6-fluoro-pyridin-3-yl)-3-(4-methoxymethyl-1H-benzoimidazol-2-yl)-1H-pyrazolo[3,4-b]pyridine]					
> 100000	375	29.2	> 10000	640	> 100000	1050	> 100000	10.2	23.6	COCc1cccc2[nH]c(-c3n[nH]c4ncc(-c5cncc(C=NO)c5)cc34)nc12 [Cpd 72, 5-[3-(4-methoxymethyl-1H-benzoimidazol-2-yl)-1H-pyrazolo[3,4-b]pyridin-5-yl]-pyridine-3-carbaldehyde oxime]					
			3990						7.4	CCCNCc1cncc(-c2cnc3[nH]nc(-c4nc5c(COC)cccc5[nH]4)c3c2)c1 [Cpd 78, {5-[3-(4-methoxymethyl-1H-benzoimidazol-2-yl)-1H-pyrazolo[3,4-b]pyridin-5-yl]-pyridin-3-ylmethyl}-propyl-amine]	95.4	113.6	329.3	558	856.9
1070	712	543	283	474	25	415		627	3.05	CCNCc1cncc(-c2cnc3[nH]nc(-c4nc5cc(N6CCN(C)CC6)ccc5[nH]4)c3c2)c1 [Cpd 82, ethyl-(5-{3-[5-(4-methyl-piperazin-1-yl)-1H-benzoimidazol-2-yl]-1H-pyrazolo[3,4-b]pyridin-5-yl}-pyridin-3-ylmethyl)-amine]	97.7	222	455.5	742.4	1323.6
